In patent publication US9370507B2, “Pyridonyl guanidine F1F0-ATPase inhibitors and therapeutic uses thereof” (Lycera Corporation, priority 2010, dated 2016):
pEC50, pIC50: −log10 of the molar value.

Experiments:
F1F0-ATPase = biological target: T1, F1F0-ATPase (Bos taurus, UniProt P13621); assay: Inhibition of F1F0-ATPase activity in synthesizing ATP; type: biochemical; conditions: inhibition of ATP synthesis; read-out: ATP Syn IC50
T1 construct: from tissue
Method: (§1) The compounds listed in Table 4 were tested for activity against F1F0-ATPase by measuring the ability of the compounds to inhibit ATP synthesis. In addition, the compounds were assessed for cytotoxicity in Ramos cells Inhibition of F1F0-ATPase activity in synthesizing ATP and cytotoxicity in Ramos cells were measured according to the procedures described in K. M. Johnson et al. Chemistry & Biology 2005, 12, 485-496.

Ramos cells = assay: Cytotoxicity in Ramos cells; type: cell-based; conditions: Homo sapiens, read-out: Ramos Cell EC50
Method: as §1

Cc1cc(CN/C(=N/C(=O)c2ccc(Cl)c(F)c2)Nc2cccc(O)n2)no1 [Compound A-55]
pIC50 (F1F0-ATPase): > 5.00 | pEC50 (Ramos cells): < 5.00

O=C(/N=C(\NCC(F)(F)F)Nc1cccc(O)n1)c1ccc(Cl)cc1 [Compound A-56]
pIC50 (F1F0-ATPase): > 5.00 | pEC50 (Ramos cells): > 5.00

CC(C)(N/C(=N\C(=O)c1ccc(Cl)cc1)Nc1cccc(O)n1)C(F)(F)F [Compound A-57]
pIC50 (F1F0-ATPase): > 5.00 | pEC50 (Ramos cells): > 5.00

CC1(N/C(=N\C(=O)c2ccc(Cl)cc2)Nc2cccc(O)n2)CCC1 [Compound A-58]
pIC50 (F1F0-ATPase): > 5.00 | pEC50 (Ramos cells): > 5.00

O=C(/N=C(/Nc1cccc(O)n1)NC(C1CC1)C1CC1)c1ccc(C(F)(F)F)cc1 [Compound A-59]
pIC50 (F1F0-ATPase): > 5.00 | pEC50 (Ramos cells): > 5.00

O=C(/N=C(/NCc1cc(F)c(F)c(F)c1)Nc1cccc(O)n1)c1ccc(Cl)cc1 [Compound A-60]
pIC50 (F1F0-ATPase): > 5.00 | pEC50 (Ramos cells): < 5.00

CC1(N/C(=N/C(=O)c2ccc(C(F)(F)F)cc2)Nc2cccc(O)n2)CCCC1 [Compound A-61]
pIC50 (F1F0-ATPase): > 5.00 | pEC50 (Ramos cells): > 5.00

CC1(N/C(=N/C(=O)c2ccc(Cl)cc2)Nc2cccc(O)n2)CCCC1 [Compound A-62]
pIC50 (F1F0-ATPase): > 5.00 | pEC50 (Ramos cells): > 5.00

O=C(N=C(Nc1cccc(O)n1)NC1CCC(C(F)(F)F)CC1)c1ccc(C(F)(F)F)cc1 (centres unmarked) [Compound A-63]
pIC50 (F1F0-ATPase): > 5.00 | pEC50 (Ramos cells): > 5.00

O=C(N=C(Nc1cccc(O)n1)NC1CCC(C(F)(F)F)CC1)c1ccc(Cl)cc1 (centres unmarked) [Compound A-64]
pIC50 (F1F0-ATPase): > 5.00 | pEC50 (Ramos cells): > 5.00

CC(=O)N(Cc1ccc(F)c(Cl)c1)/C(=N/C(=O)c1ccc(C(F)(F)F)cc1)Nc1cccc(O)n1 [Compound A-65]
pIC50 (F1F0-ATPase): > 5.00 | pEC50 (Ramos cells): > 5.00

COc1cccc(N/C(=N\C(=O)c2ccc(C(F)(F)F)cc2)NCc2ccc(Cl)c(F)c2)n1 [Compound A-66]
pIC50 (F1F0-ATPase): < 5.00 | pEC50 (Ramos cells): < 5.00

CC(NC(=NC(=O)c1ccc(C(F)(F)F)cc1)Nc1cccc(O)n1)c1ccccc1Cl (centres unmarked) [Compound A-67]
pIC50 (F1F0-ATPase): > 5.00 | pEC50 (Ramos cells): > 5.00

CC(NC(=NC(=O)c1ccc(C(F)(F)F)cc1)Nc1cccc(O)n1)c1cccc(Cl)c1 (centres unmarked) [Compound A-68]
pIC50 (F1F0-ATPase): > 5.00 | pEC50 (Ramos cells): > 5.00

CC(NC(=NC(=O)c1ccc(C(F)(F)F)cc1)Nc1cccc(O)n1)c1ccc(Cl)cc1 (centres unmarked) [Compound A-69]
pIC50 (F1F0-ATPase): > 5.00 | pEC50 (Ramos cells): > 5.00

O=C(/N=C(/NCc1ccccc1Cl)Nc1cccc(O)n1)c1ccc(F)c(F)c1 [Compound A-71]
pIC50 (F1F0-ATPase): > 5.00 | pEC50 (Ramos cells): > 5.00

O=C(/N=C(/NCc1cccc(Cl)c1)Nc1cccc(O)n1)c1ccc(F)c(F)c1 [Compound A-72]
pIC50 (F1F0-ATPase): > 5.00 | pEC50 (Ramos cells): > 5.00

O=C(/N=C(/NCc1ccccc1C(F)(F)F)Nc1cccc(O)n1)c1ccc(F)c(F)c1 [Compound A-73]
pIC50 (F1F0-ATPase): > 5.00 | pEC50 (Ramos cells): > 5.00

O=C(/N=C(/NCc1cccc(C(F)(F)F)c1)Nc1cccc(O)n1)c1ccc(F)c(F)c1 [Compound A-74]
pIC50 (F1F0-ATPase): > 5.00 | pEC50 (Ramos cells): > 5.00

O=C(/N=C(/NCc1cc(F)c(F)c(F)c1)Nc1cccc(O)n1)c1ccc(F)c(F)c1 [Compound A-75]
pIC50 (F1F0-ATPase): < 5.00 | pEC50 (Ramos cells): < 5.00

O=C(/N=C(/NCc1ccc(Cl)cc1)Nc1cccc(O)n1)c1ccc(Cl)cc1 [Compound A-76]
pIC50 (F1F0-ATPase): > 5.00 | pEC50 (Ramos cells): > 5.00

O=C(/N=C(/NCc1ccccc1C(F)(F)F)Nc1cccc(O)n1)c1ccc(Cl)cc1 [Compound A-77]
pIC50 (F1F0-ATPase): > 5.00 | pEC50 (Ramos cells): > 5.00

O=C(/N=C(/NCc1ccc(C(F)(F)F)cc1)Nc1cccc(O)n1)c1ccc(Cl)cc1 [Compound A-79]
pIC50 (F1F0-ATPase): > 5.00 | pEC50 (Ramos cells): > 5.00

O=C(/N=C(/NCc1ccc(F)c(F)c1)Nc1cccc(O)n1)c1ccc(Cl)cc1 [Compound A-80]
pIC50 (F1F0-ATPase): > 5.00 | pEC50 (Ramos cells): > 5.00

O=C(/N=C(/NCc1ccc(F)cc1Cl)Nc1cccc(O)n1)c1ccc(Cl)cc1 [Compound A-81]
pIC50 (F1F0-ATPase): > 5.00 | pEC50 (Ramos cells): > 5.00

O=C(/N=C(/NCc1ccc(F)c(Cl)c1)Nc1cccc(O)n1)c1ccc(Cl)cc1 [Compound A-82]
pIC50 (F1F0-ATPase): > 5.00 | pEC50 (Ramos cells): > 5.00

O=C(/N=C(/NCc1ccc(Cl)c(F)c1)Nc1cccc(O)n1)c1ccc(Cl)cc1 [Compound A-83]
pIC50 (F1F0-ATPase): > 5.00 | pEC50 (Ramos cells): > 5.00

O=C(/N=C(/NCc1ccc(Cl)cc1F)Nc1cccc(O)n1)c1ccc(Cl)cc1 [Compound A-84]
pIC50 (F1F0-ATPase): > 5.00 | pEC50 (Ramos cells): < 5.00

O=C(/N=C(/NCc1ccc(F)cc1)Nc1cccc(O)n1)c1ccc(C(F)(F)F)cc1 [Compound A-85]
pIC50 (F1F0-ATPase): > 5.00 | pEC50 (Ramos cells): > 5.00

O=C(/N=C(/NCc1cccc(F)c1F)Nc1cccc(O)n1)c1ccc(C(F)(F)F)cc1 [Compound A-86]
pIC50 (F1F0-ATPase): > 5.00 | pEC50 (Ramos cells): > 5.00

O=C(/N=C(/NCc1ccccc1Cl)Nc1cccc(O)n1)c1ccc(Cl)cc1 [Compound A-87]
pIC50 (F1F0-ATPase): > 5.00 | pEC50 (Ramos cells): > 5.00

O=C(/N=C(/NCc1cccc(Cl)c1)Nc1cccc(O)n1)c1ccc(Cl)cc1 [Compound A-88]
pIC50 (F1F0-ATPase): > 5.00 | pEC50 (Ramos cells): > 5.00

O=C(/N=C(\Nc1cccc(O)n1)NC1CCCC1)c1ccc(C(F)(F)F)cc1 [Compound A-89]
pIC50 (F1F0-ATPase): > 5.00 | pEC50 (Ramos cells): > 5.00

CCC(C)(C)N/C(=N/C(=O)c1ccc(C(F)(F)F)cc1)Nc1cccc(O)n1 [Compound A-90]
pIC50 (F1F0-ATPase): > 5.00 | pEC50 (Ramos cells): > 5.00

C[C@@H](N/C(=N/C(=O)c1ccc(C(F)(F)F)cc1)Nc1cccc(O)n1)C1CCCCC1 [Compound A-91]
pIC50 (F1F0-ATPase): > 5.00 | pEC50 (Ramos cells): > 5.00

O=C(/N=C(\Nc1cccc(O)n1)NC1CCOCC1)c1ccc(C(F)(F)F)cc1 [Compound A-92]
pIC50 (F1F0-ATPase): > 5.00 | pEC50 (Ramos cells): > 5.00

O=C(/N=C(\Nc1cccc(O)n1)NC1CCCOC1)c1ccc(C(F)(F)F)cc1 (centres unmarked) [Compound A-93]
pIC50 (F1F0-ATPase): > 5.00 | pEC50 (Ramos cells): > 5.00

COCC(C)N/C(=N/C(=O)c1ccc(C(F)(F)F)cc1)Nc1cccc(O)n1 (centres unmarked) [Compound A-94]
pIC50 (F1F0-ATPase): > 5.00 | pEC50 (Ramos cells): < 5.00

O=C(/N=C(\Nc1cccc(O)n1)NC1CCCC1)c1ccc(F)c(F)c1 [Compound A-95]
pIC50 (F1F0-ATPase): > 5.00 | pEC50 (Ramos cells): > 5.00

CCC(C)(C)N/C(=N/C(=O)c1ccc(F)c(F)c1)Nc1cccc(O)n1 [Compound A-96]
pIC50 (F1F0-ATPase): > 5.00 | pEC50 (Ramos cells): > 5.00

C[C@@H](N/C(=N/C(=O)c1ccc(F)c(F)c1)Nc1cccc(O)n1)C1CCCCC1 [Compound A-97]
pIC50 (F1F0-ATPase): > 5.00 | pEC50 (Ramos cells): > 5.00

O=C(/N=C(\Nc1cccc(O)n1)NC1CCOCC1)c1ccc(F)c(F)c1 [Compound A-98]
pIC50 (F1F0-ATPase): < 5.00 | pEC50 (Ramos cells): < 5.00

O=C(/N=C(\Nc1cccc(O)n1)NC1CCCOC1)c1ccc(F)c(F)c1 (centres unmarked) [Compound A-99]
pIC50 (F1F0-ATPase): < 5.00 | pEC50 (Ramos cells): < 5.00

COCC(C)N/C(=N/C(=O)c1ccc(F)c(F)c1)Nc1cccc(O)n1 (centres unmarked) [Compound A-100]
pIC50 (F1F0-ATPase): < 5.00 | pEC50 (Ramos cells): < 5.00

O=C(/N=C(\Nc1cccc(O)n1)NC1CCCC1)c1ccc(Cl)cc1 [Compound A-101]
pIC50 (F1F0-ATPase): > 5.00 | pEC50 (Ramos cells): < 5.00

CCC(C)(C)N/C(=N/C(=O)c1ccc(Cl)cc1)Nc1cccc(O)n1 [Compound A-102]
pIC50 (F1F0-ATPase): > 5.00 | pEC50 (Ramos cells): > 5.00

C[C@@H](N/C(=N/C(=O)c1ccc(Cl)cc1)Nc1cccc(O)n1)C1CCCCC1 [Compound A-103]
pIC50 (F1F0-ATPase): > 5.00 | pEC50 (Ramos cells): > 5.00

O=C(/N=C(\Nc1cccc(O)n1)NC1CCOCC1)c1ccc(Cl)cc1 [Compound A-104]
pIC50 (F1F0-ATPase): < 5.00 | pEC50 (Ramos cells): < 5.00

O=C(/N=C(\Nc1cccc(O)n1)NC1CCCOC1)c1ccc(Cl)cc1 (centres unmarked) [Compound A-105]
pIC50 (F1F0-ATPase): < 5.00 | pEC50 (Ramos cells): < 5.00

COCC(C)N/C(=N/C(=O)c1ccc(Cl)cc1)Nc1cccc(O)n1 (centres unmarked) [Compound A-106]
pIC50 (F1F0-ATPase): < 5.00 | pEC50 (Ramos cells): < 5.00

CC(C)N/C(=N/C(=O)c1ccc(F)c(F)c1)Nc1cccc(O)n1 [Compound A-107]
pIC50 (F1F0-ATPase): > 5.00 | pEC50 (Ramos cells): < 5.00

O=C(/N=C(\Nc1cccc(O)n1)NC1CCC1)c1ccc(F)c(F)c1 [Compound A-108]
pIC50 (F1F0-ATPase): > 5.00 | pEC50 (Ramos cells): < 5.00

CC(C)N/C(=N/C(=O)c1ccc(Cl)cc1)Nc1cccc(O)n1 [Compound A-109]
pIC50 (F1F0-ATPase): > 5.00 | pEC50 (Ramos cells): < 5.00

Nc1cccc(N/C(=N\C(=O)c2ccc(F)c(F)c2)Nc2cccc(C(F)(F)F)c2)n1 [Compound A-110]
pIC50 (F1F0-ATPase): > 5.00 | pEC50 (Ramos cells): < 5.00

CCOC(=O)Nc1cccc(N/C(=N\C(=O)c2ccc(F)c(F)c2)Nc2cccc(C(F)(F)F)c2)n1 [Compound A-111]
pIC50 (F1F0-ATPase): < 5.00 | pEC50 (Ramos cells): < 5.00
